Consider 12 molecules from US20250236627A1, “CERTAIN OCTAHYDROFURO[3,4- B]PYRAZINES AS GLP-1 RECEPTOR MODULATORS” (ASTRAZENECA AB, priority 2021, published 2025).

SMILES strings stand for the structures.

In test [1] the target is T1, endogenous human glucagon-like peptide 1 receptor (GLP-1R) (Homo sapiens, UniProt P43220).
T1 construct: endogenous human glucagon-like peptide 1 receptor (GLP-1R) in a pancreatic insulinoma cell line; host or cells: EndoC-βH1 human pancreatic β cell line
As to the kind of experiment: EndoC cAMP Accumulation Assay. Conditions: EndoC-βH1 human pancreatic β cell line; HTRF cAMP assay. Format: cell-based. The source says:
EndoC cAMP Accumulation Assay
A HTRF (Homogeneous Time-Resolved Fluorescence) cAMP assay (cAMP Gs dynamic kit; CisoBio Cat #62AM4PEJ) was used to identify agonists of the endogenous human glucagon-like peptide 1 receptor (GLP-1R) in a pancreatic insulinoma cell line (EndoC-βH1). […] EndoC-βH1 cells have detectable GLP-1R mRNA as detected by qPCR^1. […] The EndoC-βH1 cell line is a valid model of human beta cells and applicable for screenings to identify novel drug target candidates (Mol. Metab., 2018, 8, 144-157). CisBio HTRF cAMP kits are based on a competitive immunoassay using cryptate-labelled anti-cAMP antibody and d2-labeled cAMP. The detection kit is intended for the direct quantitative determination of cAMP. The specific signal (i.e. energy transfer) is inversely proportional to the concentration of cAMP in the standard or sample. Test compounds (10 mM in DMSO) were diluted into assay buffer (HBSS (Sigma #H8264) supplemented with 25 mM HEPES (Gibco #15630, pH 7.4), 0.1% BSA (Sigma #A3059) and 0.5 mM IBMX (Sigma #I7018) included fresh on the day of the assay) into 96 well U-bottom plates (Greiner #650201). Diluted compounds were transferred to ECHO source PP plates (Labcyte #P-05525) and dose response curves were dispensed acoustically using ECHO 550 into black shallow-well u-bottom 384-well HTRF Assay Plates (Corning 4514).
Cryovials of EndoC-H1 (supplied at 1×10e^7 cells/vial) were used directly for screening. The cryovials and were removed from LN2 and thawed rapidly in a 37° C. water bath. The cells were resuspended in assay buffer and centrifuged at 300 g for 5 min. Cells were resuspended in assay buffer at the appropriate concentration, typically at 12e5 cells per mL (3000 cells per well, dependent on cell batch) and 2.5 μL diluted cells were added to all wells of destination plate by Multidrop combi reagent dispenser (Thermofisher). The plates were incubated at room temperature for 30 min. The assay was stopped by adding 2.5 μL anti-cAMP cryptate solution to all wells and 2.5 μL cAMP-d2 solution (both diluted 1:20 in lysis buffer) to columns 1-22 by Combi drop. A volume of 2.5 μL cAMP-d2 solution was added to wells E23 to P24 and 2.5 μL lysis buffer added to wells A23 to D24 by multichannel pipette. The plates were incubated at room temperature for 1 hr and read on an Envision plate reader using excitation wavelength of 320 nm and emission of 590 nm and 660 nm.
Raw data from Envision is converted to % DeltaF according to the manufacturer's instructions. Dose response curves are analysed via 4-Parameter Logistical Analysis and assay plate Z′ values obtained. Samples are graphed as percentage (%) activation plots compared to GIP (1-42, Bachem H-5645) with assay window defined by negative control as basal cell cAMP levels and positive control are defined by maximum GIP (82.5 nM) signal. GLP1 (7-36 amide, Bachem H-6795) dose response curve was included on all plates.

Test [2] deals with T2, human GLP-1R receptor (Homo sapiens, UniProt P43220, L260F).
T2 construct: expressed in transfected cells; host or cells: CHO-K1 (ATCC CCL-61)
Briefly: CHOK1 GLP-1R cAMP Assay. Format: cell-based. To be noted: CHO-K1 cell line stably expressing human GLP-1R; HTRF cAMP detection. As for the experimental part:
A cell line stably expressing the human GLP-1R receptor (NM_002062.5, including the naturally-occurring variant Leu260Phe) in a CHO-K1 (ATCC® CCL-61™) was used for assay.
GLP-1 Receptor mediated agonist activity was determined in a cell based assay measuring cAMP levels in cells using Homogeneous Time-Resolved Fluorescence (HTRF) cAMP detection kit (CisBio catalog #62AM4PEC, cAMP Gs Dynamic range kit). The cAMP detection method is based on a competitive immunoassay, in which cAMP produced by the cells and cAMP labeled with the dye d2 compete for binding to a Europium-Cryptate-labeled anti-cAMP antibody. The specific HTRF signal is inversely proportional to the concentration of cAMP.
Compounds were added to individual well in 384 well-assay plates (Greiner #784076) using an Echo (LabCyte) dispenser from 10 mM stocks. Varying concentration of compounds were added to wells, and dimethyl sulfoxide was used to normalize each well to a volume of 100 nanoliter. A dose response curve of GLP1(7-36)NH2 (Bachem H-6795) was included in each run. 5 μL of cAMP concentration response standards are applied in specified wells in the assay plates.
Cryo-preserved cells are thawed and resuspended in assay buffer pre-heated to 37° C. (20 mM 2-[4-(2-hydroxyethyl)piperazin-1-yl]ethanesulfonic acid (HEPES) pH 7.4, lx Hank's Balanced Salt Solution (HBSS, Life Technologies #14065) supplemented with 0.1% (w/v) bovine serum albumin (Sigma, A-7030)). Cells were centrifuged at 250*g for 5 min at room temperature, and resuspend in room tempered assay buffer to a final density of 0.16*10^6 cell/mL, to deliver 800 cells/well. 5 μL of assay buffer with 1 mM 3-isobutyl-1-methylxanthin (IBMX; Sigma cat I-7018) was dispensed per well in assay plates using a multidrop combi (Thermo Scientific) subsequently 5 μL of cell suspension was distributed to relevant wells in the assay using a multidrop dispenser. Assay plates were incubated 20 min at room temperature.
Detection reagents, Europium-Cryptate-labeled anti-cAMP antibody and cAMP labeled with the dye d2, are diluted in lysis buffer, provided by the manufacturer. 5 μL of each detection reagent is supplemented to each assay well using a multidrop dispenser. Assay plates are incubated in the dark for at least one hour. The HTRF signal is measured using the HTRF module (excitation: 337 nm, emission A: 665 nm and emission B: 620 nm) in Pherastar FSX (BMG Labtech).
Raw data were converted to pM cAMP using the cAMP standard curve included in each run. Converted data were further analyzed in Genedata Screener (Genedata) and EC50 determinations were made from agonist dose-response curves analyzed with a curve fitting program using a 4-parameter logistic dose response equation (Equation y=A+((B−A)/1+((C/x)^D))) where A is no stimulation, B is full stimulation, C is the EC50 and D is the Hill slope). The percent effect was determined relative to a saturating concentration of a full GLP-1R agonist (GLP1(7-36)NH2 has 100% effect in this assay setup).

T2 sequence (P43220 24-463 L260F): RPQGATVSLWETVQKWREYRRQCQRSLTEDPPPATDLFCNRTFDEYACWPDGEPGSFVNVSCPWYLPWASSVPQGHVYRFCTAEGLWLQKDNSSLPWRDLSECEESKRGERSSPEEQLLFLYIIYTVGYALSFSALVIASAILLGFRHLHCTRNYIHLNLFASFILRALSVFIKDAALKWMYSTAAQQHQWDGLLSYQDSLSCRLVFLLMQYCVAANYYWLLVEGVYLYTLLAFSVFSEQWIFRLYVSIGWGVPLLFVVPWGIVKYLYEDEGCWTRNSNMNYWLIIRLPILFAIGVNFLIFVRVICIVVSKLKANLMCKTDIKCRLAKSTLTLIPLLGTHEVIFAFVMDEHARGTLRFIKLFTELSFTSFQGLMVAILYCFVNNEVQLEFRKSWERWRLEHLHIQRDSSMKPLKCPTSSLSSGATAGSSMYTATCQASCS
T1 sequence (P43220 24-463): as the sequence (P43220 24-463 L260F) above, with F237L counted along it

For `Cc1nccn1CCn1c(CN2CCN(c3cccc4c3O[C@@](C)(c3ccc(Cl)cc3F)O4)[C@@H]3COC[C@@H]32)nc2c(Cl)cc(C(=O)O)cc21` (single isomer, unassigned) [Example 18], the concentration giving a half-maximal response (EC50) in test [1] is 6.1 nM; in test [2], 26 nM. Turning to `C[C@]1(c2ccc(Cl)cn2)Oc2cccc(N3CCN(Cc4nc5c(Cl)cc(C(=O)O)cc5n4C[C@@H]4CCO4)[C@H]4COC[C@H]43)c2O1` (single isomer, unassigned) [Example 14a, 4-Chloro-2-(((4aR*,7aS*)-4-((R*)-2-(5-chloropyridin-2-yl)-2-methylbenzo[d][1,3]dioxol-4-yl)hexahydrofuro[3,4-b]pyrazin-1(2H)-yl)methyl)-1-(((S)-oxetan-2-yl)methyl)-1H-benzo[d]imidazole-6-carboxylic acid], the concentration giving a half-maximal response (EC50) in test [1] turned out to be 3.3 nM; in test [2], 1.5 nM. In the same order, the values of `C[C@]1(c2ccc(Cl)cn2)Oc2cccc(N3CCN(Cc4nc5c(Cl)cc(C(=O)O)cc5n4CC4(C#N)CC4)[C@H]4COC[C@H]43)c2O1` (single isomer, unassigned) [Example 23b] are 190 nM and 77 nM. Taken in the same sequence, the figures for `C[C@]1(c2ccc(Cl)cc2F)Oc2cccc(N3CCN(Cc4nc5c(F)cc(C(=O)O)cc5n4C[C@@H]4CCO4)[C@H]4COC[C@H]43)c2O1` (single isomer, unassigned) [Example 16d, 2-(((4aR*,7aS*)-4-((R*)-2-(4-Chloro-2-fluorophenyl)-2-methylbenzo[d][1,3]dioxol-4-yl)hexahydrofuro[3,4-b]pyrazin-1(2H)-yl)methyl)-4-fluoro-1-(((S)-oxetan-2-yl)methyl)-1H-benzo[d]imidazole-6-carboxylic acid] were 270 nM and 160 nM. Taken in the same sequence, the figures for `Cc1nccn1CCn1c(CN2CCN(c3cccc4c3O[C@@](C)(c3ccc(Cl)cc3F)O4)[C@@H]3COC[C@@H]32)nc2c(F)cc(C(=O)O)cc21` (single isomer, unassigned) [Example 17] were 4.5 nM and 14 nM. Take `C[C@]1(c2ccc(Cl)cn2)Oc2cccc(N3CCN(Cc4nc5ccc(C(=O)O)cc5n4C[C@@H]4CCO4)[C@H]4COC[C@H]43)c2O1` (relative stereo) [Example 5a, 2-((4aR*,7aS*)-4-((R*)-2-(5-Chloropyridin-2-yl)-2-methylbenzo[d][1,3]dioxol-4-yl)hexahydrofuro[3,4-b]pyrazin-1(2H)-yl)methyl)-1-(((S)-oxetan-2-yl)methyl)-1H-benzo[d]imidazole-6-carboxylic acid]: the 50% effective concentration (EC50) in test [1] is 1300 nM; in test [2], 180 nM. Taken in the same sequence, the figures for `C[C@]1(c2ccc(Cl)cn2)Oc2cccc(N3CCN(Cc4nc5ccc(C(=O)O)cc5n4CCn4cccn4)[C@H]4COC[C@H]43)c2O1` (single isomer, unassigned) [Example 10] were 76 nM and 160 nM. Take `C[C@]1(c2ccc(Cl)cn2)Oc2cccc(N3CCN(Cc4nc5c(Cl)cc(C(=O)O)cc5n4C[C@@H]4CCCO4)[C@H]4COC[C@H]43)c2O1` (single isomer, unassigned) [Example 4b, 4-Chloro-2-(((4aR*,7aS*)-4-((R*)-2-(5-chloropyridin-2-yl)-2-methylbenzo[d][1,3]dioxol-4-yl)hexahydrofuro[3,4-b]pyrazin-1(2H)-yl)methyl)-1-(((S)-tetrahydrofuran-2-yl)methyl)-1H-benzo[d]imidazole-6-carboxylic acid]: the figures for the EC50 in test [1] and in test [2] were 130 nM and 80 nM, respectively. In the same order, the values of `C[C@]1(c2ccc(Cl)cc2F)Oc2cccc(N3CCN(Cc4nc5c(F)cc(C(=O)O)cc5n4C[C@@H]4CCO4)[C@H]4COC[C@H]43)c2O1` (single isomer, unassigned) [Example 16c, 2-(((4aR*,7aS*)-4-((R*)-2-(4-Chloro-2-fluorophenyl)-2-methylbenzo[d][1,3]dioxol-4-yl)hexahydrofuro[3,4-b]pyrazin-1(2H)-yl)methyl)-4-fluoro-1-(((S)-oxetan-2-yl)methyl)-1H-benzo[d]imidazole-6-carboxylic acid] are 440 nM and 170 nM. In the same order, the values of `C[C@]1(c2ccc(Cl)cc2F)Oc2cccc(N3CCN(Cc4nc5c(Cl)cc(C(=O)O)cc5n4C[C@@H]4CCO4)[C@H]4COC[C@H]43)c2O1` (single isomer, unassigned) [Example 15d, 4-Chloro-2-(((4aR*,7aS*)-4-((R*)-2-(4-chloro-2-fluorophenyl)-2-methylbenzo[d][1,3]dioxol-4-yl)hexahydrofuro[3,4-b]pyrazin-1(2H)-yl)methyl)-1-(((S)-oxetan-2-yl)methyl)-1H-benzo[d]imidazole-6-carboxylic acid] are 160 nM and 190 nM. Taken in the same sequence, the figures for `C[C@]1(c2ccc(Cl)cn2)Oc2cccc(N3CCN(Cc4nc5c(F)cc(C(=O)O)cc5n4C[C@@H]4CCO4)[C@H]4COC[C@H]43)c2O1` (single isomer, unassigned) [Example 9b, 2-((4aR*,7aS*)-4-((R*)-2-(5-Chloropyridin-2-yl)-2-methylbenzo[d][1,3]dioxol-4-yl)hexahydrofuro[3,4-b]pyrazin-1(2H)-yl)methyl)-4-fluoro-1-(((S)-oxetan-2-yl)methyl)-1H-benzo[d]imidazole-6-carboxylic acid] were 660 nM and 180 nM.

With `C[C@]1(c2ccc(Cl)cc2F)Oc2cccc(N3CCN(Cc4nc5ccc(C(=O)O)cc5n4CCn4cccn4)[C@H]4COC[C@H]43)c2O1` (single isomer, unassigned) [Example 7b], the 50% effective concentration (EC50) in test [2] amounted to 380 nM.
